Results as given in US8367671B2, “Pyrazolo[3.4-B]pyrazine compounds as p38 modulators and methods of use as anti-inflamatory agents” (Amgen Inc., priority 2008, dated 2013).

How the values were obtained:
[1] = molecular target: human p38α (Homo sapiens, UniProt Q16539); assay: Purified and activated recombinant human p38α HTRF kinase assay; type: biochemical; conditions: 1 nM p38α, 50 μM ATP, 100 nM GST-ATF2-Avitag, 1 hour at RT; read-out: p38a IC50
Experimental: Purified and Activated Recombinant Human p38α Aassay
Kinase Reaction Buffer: Kinase reaction buffer for p38α HTRF assays consists of 50 mM Tris-pH 7.5, 5 mM MgCl2, 0.1 mg/mL BSA, 100 μM Na3VO4 and 0.5 mM DTT.
HTRF Detection Buffer: HTRF detection buffer contains 100 mM HEPES-pH 7.5, 100 mM NaCl, 0.1% BSA, 0.05% Tween-20, and 10 mM EDTA.
Serial Dilution of Compounds: Compounds were dissolved in 100% DMSO and serially diluted (3 fold, 10 point) in a polypropylene 96-well microtiter plate (drug plate). The final starting concentration of compounds in the p38a enzymatic assays was 1 μM. Columns 6 and 12 (HI controls and LO controls respectively) in the drug plate were reserved as controls and contained only DMSO. Kinase Reaction: The p38α kinase reactions were carried out in a polypropylene 96-well black round bottom assay plate in total volume of 30 μL kinase reaction buffer. Appropriate concentration of purified and activated enzyme (recombinant human) was mixed with indicated concentration of ATP and 100 nM GST-ATF2-Avitag, in the presence or absence (HI control) of Compound. See table below for actual concentrations. In the absence of substrate, the background was measured as LO control. The reaction was allowed to incubate for 1 hour at RT. Assay Reagent Concentrations: The final reagent concentrations were 1 nM p38α and 50 μM ATP. The Km for ATP of the enzyme was 103 μM, giving a ratio of ATP concentration to Km of 0.49. […] After 60 minutes incubation at room temperature, the assay plate was read in a Discovery Plate Reader. The wells were excited with coherent 320 nm light and the ratio of delayed ([…] post excitation) emissions at […] (native europium fluorescence) and 665 nm (europium fluorescence transferred to allophycocyanin—an index of substrate phosphorylation) was determined (Park et al, 1999). Data Analysis: The proportion of substrate phosphorylated in the kinase reaction in the presence of compound compared with that phosphorylated in the presence of DMSO vehicle alone (HI control) was calculated using the formula: % control (POC)=(compound−average LO)/(average HI−average LO)*100. Data (consisting of POC and inhibitor concentration in μM) was fitted to a 4-parameter equation (y=A+((B−A)/(1+((x/C)^D))), where A is the minimum y (POC) value, B is the maximum y (POC), C is the x (compound concentration) at the point of inflection and D is the slope factor, using a Levenburg-Marquardt non-linear regression algorithm.
The inhibition constant (Ki) of the inhibitor was estimated from the IC50 (compound concentration at the point of inflection C) using the Cheng-Prussof equation: Ki=IC50/(1+S/Km), where S is the ATP substrate concentration, and Km is the Michaelis constant for ATP as determined experimentally. All results were expressed as the mean±the standard error of the mean. Data acquisition and non-linear regression algorithms were performed using Activity Base v5.2 and XL-fit software v4.1 respectively. All data was archived using Activity Base v5.2 software.

[2] = system: TNF-α induced IL-8 in 50% human whole blood; assay: Inhibition of TNF-α induced IL-8 in 50% human whole blood; type: cell-based; conditions: 50% human whole blood activated with 1 nM TNF-α, secreted IL-8, 16-18 hours; read-out: WB TNF/IL8 IC50
Experimental: Inhibition of TNF-α Induced IL-8 in 50% Human Whole Blood
Test compounds were evaluated in vitro for the ability to inhibit the production of secreted IL-8 by whole blood activated with TNF-α. Fresh human whole blood was obtained from healthy, non-medicated volunteers in sodium heparin tubes.
Compound Dilution—Assay Procedure
Test compounds are serially diluted 1:3 in DMSO and then diluted 1:250 into R10 (RPMI 1640, 10% human serum AB, 1× pen/strep/glutamine) to the 4× working concentration to be used in the assay. 100 ul heparinized whole blood is plated into wells of 96 well flat bottom plates. 50 ul of either 4× compound or DMSO control (Final DMSO concentration is 0.1%) are added to the appropriate wells. Plates are incubated for 1 hour at 37 degrees Celsius. 50 ul of 4× TNF-α (4 nM TNF-α, for a final concentration of 1 nM) or control (media alone) is added to the appropriate wells (Total volume=200 ul). Plates are incubated overnight (16-18 hours). 100 ul of supernatant is collected and stored in 96-well round bottom polypropylene plates at −80 degrees Celsius or assayed immediately for IL-8.
Cytokines are measured on antibody (Ab) sandwich ECL based 96-well detection plates. 20 ul of supernatant are added to plate and plate is sealed and shaken at RT for 1 hour. 130 ul of detection Ab cocktail is added and plates are sealed and shaken for 1 hour in the dark at RT. Plates are read on MSD Sector HTS instrument. Data are analyzed and IC50 values generated using Activity Base and Xl-fit programs.

Chain of human p38α (Q16539 whole entry): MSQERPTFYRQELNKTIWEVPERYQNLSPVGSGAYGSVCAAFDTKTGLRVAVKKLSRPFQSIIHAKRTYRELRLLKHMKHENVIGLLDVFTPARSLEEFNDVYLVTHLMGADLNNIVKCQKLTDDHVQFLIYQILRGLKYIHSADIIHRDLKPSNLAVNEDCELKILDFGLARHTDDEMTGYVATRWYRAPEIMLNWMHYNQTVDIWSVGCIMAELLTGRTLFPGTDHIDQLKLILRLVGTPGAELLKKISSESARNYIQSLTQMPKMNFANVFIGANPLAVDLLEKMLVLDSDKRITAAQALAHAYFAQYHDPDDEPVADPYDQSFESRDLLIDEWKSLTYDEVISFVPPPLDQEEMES

SMILES	IC50 [1]	IC50 [2]
CCn1c(=O)c(-c2cc(C(=O)Nc3ccon3)cc(F)c2C)nc2cnn(-c3ccc(F)cc3F)c21 [Example 2, 3-(1-(2,4-Difluorophenyl)-7-ethyl-6-oxo-6,7-dihydro-1H-pyrazolo[4,3-b]pyrazin-5-yl)-5-fluoro-N-(isoxazol-3-yl)-4-methylbenzamide]	2.5 nM	6.1 nM
Cc1ccc(C(N)=O)cc1-c1nc2cnn(-c3c(F)cccc3F)c2n(C)c1=O [Example 4, 3-(1-(2,6-difluorophenyl)-7-methyl-6-oxo-6,7-dihydro-1H-pyrazolo[3,4-b]pyrazin-5-yl)-4-methylbenzamide]	8.5 nM	41 nM
Cc1c(F)cc(C(=O)Nc2ccon2)cc1-c1nc2cnn(-c3c(F)cccc3F)c2n(C)c1=O [Example 6, 3-(1-(2,6-difluorophenyl)-7-methyl-6-oxo-6,7-dihydro-1H-pyrazolo[3,4-b]pyrazin-5-yl)-5-fluoro-N-3-isoxazolyl-4-methylbenzamide]	1.2 nM	3.2 nM
Cc1c(F)cc(C(=O)NC2CC2)cc1-c1nc2cnn(-c3ccc(F)cc3F)c2n(C)c1=O [Example 7, N-cyclopropyl-3-(1-(2,4-difluorophenyl)-7-methyl-6-oxo-6,7-dihydro-1H-pyrazolo[3,4-b]pyrazin-5-yl)-5-fluoro-4-methylbenzamide]	34 nM	25 nM
Cc1c(F)cc(C(=O)Nc2ccon2)cc1-c1nc2cnn(-c3ccc(F)cc3F)c2n(C)c1=O [Example 8, 3-(1-(2,4-difluorophenyl)-7-methyl-6-oxo-6,7-dihydro-1H-pyrazolo[3,4-b]pyrazin-5-yl)-5-fluoro-N-3-isoxazolyl-4-methylbenzamide]	4.6 nM	13 nM
CCn1c(=O)c(-c2cc(C(=O)NC3CC3)cc(F)c2C)nc2cnn(-c3ccc(F)cc3F)c21 [Example 9, N-cyclopropyl-3-(1-(2,4-difluorophenyl)-7-ethyl-6-oxo-6,7-dihydro-1H-pyrazolo[3,4-b]pyrazin-5-yl)-5-fluoro-4-methylbenzamide]	5 nM	8.4 nM
Cc1ccc(C(=O)Nc2ccon2)cc1-c1nc2cnn(-c3c(F)cccc3F)c2n(C)c1=O [Example 10, 3-(1-(2,6-difluorophenyl)-7-methyl-6-oxo-6,7-dihydro-1H-pyrazolo[3,4-b]pyrazin-5-yl)-N-3-isoxazolyl-4-methylbenzamide]	10 nM	3.7 nM

Next, values leading:

IC50 [1]	IC50 [2]	SMILES
1.8 nM	10.7 nM	Cc1c(F)cc(C(=O)NC2CC2)cc1-c1nc2cnn(-c3c(F)cccc3F)c2n(C)c1=O [Example 1, N-Cyclopropyl-3-(1-(2,6-difluorophenyl)-7-methyl-6-oxo-6,7-dihydro-1H-pyrazolo[4,3-b]pyrazin-5-yl)-5-fluoro-4-methylbenzamide]
3.3 nM	7.3 nM	Cc1ccc(C(=O)NC2CC2)cc1-c1nc2cnn(-c3c(F)cccc3F)c2n(C)c1=O [Example 3, N-cyclopropyl-3-(1-(2,6-difluorophenyl)-7-methyl-6-oxo-6,7-dihydro-1H-pyrazolo[3,4-b]pyrazin-5-yl)-4-methylbenzamide]
1.4 nM	5.8 nM	CCn1c(=O)c(-c2cc(C(=O)NC3CC3)ccc2C)nc2cnn(-c3c(F)cccc3F)c21 [Example 5, N-cyclopropyl-3-(1-(2,6-difluorophenyl)-7-ethyl-6-oxo-6,7-dihydro-1H-pyrazolo[3,4-b]pyrazin-5-yl)-4-methylbenzamide]
2.3 nM	3 nM	CCn1c(=O)c(-c2cc(C(=O)NC3CC3)cc(F)c2C)nc2cnn(-c3c(F)cccc3F)c21 [Example 11, N-cyclopropyl-3-(1-(2,6-difluorophenyl)-7-ethyl-6-oxo-6,7-dihydro-1H-pyrazolo[3,4-b]pyrazin-5-yl)-5-fluoro-4-methylbenzamide]
22 nM	23 nM	CCn1c(=O)c(-c2cc(C(N)=O)cc(F)c2C)nc2cnn(-c3c(F)cccc3F)c21 [Example 12, 3-(1-(2,6-difluorophenyl)-7-ethyl-6-oxo-6,7-dihydro-1H-pyrazolo[3,4-b]pyrazin-5-yl)-5-fluoro-4-methylbenzamide]
0.7 nM	1.2 nM	CCn1c(=O)c(-c2cc(C(=O)Nc3ccon3)ccc2C)nc2cnn(-c3c(F)cccc3F)c21 [Example 13, 3-(1-(2,6-difluorophenyl)-7-ethyl-6-oxo-6,7-dihydro-1H-pyrazolo[3,4-b]pyrazin-5-yl)-N-3-isoxazolyl-4-methylbenzamide]
